Experimental data: US20240252488A1 (KOREA RESEARCH INSTITUTE OF CHEMICAL TECHNOLOGY, priority 2020, published 2024)

Assays:
MLKL [1] = target: T1, MLKL (Homo sapiens, UniProt Q8NB16); assay: MLKL degradation assay in HepG2 cell line (western blot); assay type: cell-based; set-up: endogenous in cells; host or cells: HepG2 or HaCaT; settings: cell line not given; for Degradation assay (Degradation %) 1 μM: compound 1 μM; for Degradation assay (Degradation %) 10 μM: compound 10 μM
T1 sequence (Q8NB16 1-471): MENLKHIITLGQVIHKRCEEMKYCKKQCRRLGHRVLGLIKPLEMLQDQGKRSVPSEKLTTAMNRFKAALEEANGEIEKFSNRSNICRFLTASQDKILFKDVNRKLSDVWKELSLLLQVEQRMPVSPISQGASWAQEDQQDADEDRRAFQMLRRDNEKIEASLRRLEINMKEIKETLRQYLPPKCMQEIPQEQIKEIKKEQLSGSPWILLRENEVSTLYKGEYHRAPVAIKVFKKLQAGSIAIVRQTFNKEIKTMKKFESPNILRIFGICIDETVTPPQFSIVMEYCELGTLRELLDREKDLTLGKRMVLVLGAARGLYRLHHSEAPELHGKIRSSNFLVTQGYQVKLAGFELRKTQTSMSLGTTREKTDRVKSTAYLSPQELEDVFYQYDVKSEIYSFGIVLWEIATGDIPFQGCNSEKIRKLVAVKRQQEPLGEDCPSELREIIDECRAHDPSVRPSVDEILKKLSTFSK
How it was run: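 Cells seeded, next day medium swapped for compound-containing medium (final 1 or 10 μM) and incubated 20-24 h at 37 °C. Lysates in RIPA with protease/phosphatase inhibitors were protein-matched by BCA, run on SDS-PAGE and immunoblotted for MLKL.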

MLKL [2] = target: T1, MLKL; assay: Measurement of binding affinity with MLKL receptor (competitive binding assay, Kd); set-up: made in house; host or cells: HEK 293 cell line (T7 phage in E. coli BL21-derived host is also described)
How it was run: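 Kd from an immobilized-ligand competition format: the DNA-tagged kinase from HEK 293 expression is eluted and quantified by qPCR. Compounds added from 111× DMSO stocks, final DMSO 0.9%.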

FADD−/− Jurkat cells = assay: Necroptosis inhibition assay, TNF-α-induced necroptosis (CellTiter-Glo 2.0); assay type: cell-based, human; settings: TNF-α 15 ng/mL; for Necroptosis inhibition assay (Rescue %) 1 μM: compound 1 μM; for Necroptosis inhibition assay (Rescue %) 10 μM: compound 10 μM
How it was run: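 Luminescent ATP measurement gave viability, from which cytotoxicity and necroptosis inhibition rate were derived. Before that, cells (5.0×10^5 cells/mL) saw compound at 0.1, 1 or 10 μM final for 30 minutes at room temperature, then TNF-α (15 ng/mL final) for 20 to 24 hours at 37° C.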

SMILES	Degradation assay (Degradation %) 1 μM (MLKL [1]) [%]	Degradation assay (Degradation %) 10 μM (MLKL [1]) [%]	Kd (MLKL [2]) [nM]	Necroptosis inhibition assay (Rescue %) 1 μM (FADD−/− Jurkat cells) [%]	Necroptosis inhibition assay (Rescue %) 10 μM (FADD−/− Jurkat cells) [%]	Necroptosis inhibition assay (Rescue %) 1 μM (FADD−/− Jurkat cells; FADD−/− Jurkat cells) [%]	Necroptosis inhibition assay (Rescue %) 10 μM (FADD−/− Jurkat cells; FADD−/− Jurkat cells) [%]	Necroptosis inhibition assay (Rescue %) 1.1 μM (FADD−/− Jurkat cells; compound 1.1 µM)
Nc1ncc(-c2cnn(C3CCN(C[C@H]4CC[C@H](CNC(=O)COc5cccc6c5C(=O)N(C5CCC(=O)NC5=O)C6=O)CC4)CC3)c2)nc1C(=O)O[C@@H](C(=O)Nc1ccc(F)cc1)c1ccccc1 (stereo partly drawn) [TDH-345, (R)-2-((4-fluorophenyl)amino)-2-oxo-1-phenylethyl 3-amino-6-(1-(1-(((1r,4r)-4-((2-((2-(2,6-dioxopiperidin-3-yl)-1,3-dioxoisoindolin-4-yl)oxy)acetamido)methyl)cyclohexyl)methyl)piperidin-4-yl)-1H-pyrazol-4-yl)pyrazine-2-carboxylate]	87.91	80.66	1.5	29.41	19.45			
Nc1ncc(-c2cnn(C3CCN(CCC4CCN(C(=O)C5CCN(c6cccc7c6C(=O)N(C6CCC(=O)NC6=O)C7=O)CC5)CC4)CC3)c2)nc1C(=O)O[C@@H](C(=O)Nc1ccc(F)cc1)c1ccccc1 (stereo partly drawn) [TDH-196, (R)-2-((4-fluorophenyl)amino)-2-oxo-1-phenylethyl 3-amino-6-(1-(1-(2-(1-(1-(2-(2,6-dioxopiperidin-3-yl)-1,3-dioxoisoindolin-4-yl)piperidine-4-carbonyl)piperidin-4-yl)ethyl)piperidin-4-yl)-1H-pyrazol-4-yl)pyrazine-2-carboxylate]	62.01	51.12	0.97	60.75	34			
Nc1ncc(-c2cnn(C3CCN(CCCN4CCN(c5ccc6c(c5)C(=O)N(C5CCC(=O)NC5=O)C6=O)CC4)CC3)c2)nc1C(=O)OC(C(=O)Nc1ccc(F)cc1)c1ccccc1 (stereo not drawn) [TDH-246, 2-((4-fluorophenyl)amino)-2-oxo-1-phenylethyl 3-amino-6-(1-(1-(3-(4-(2-(2,6-dioxopiperidin-3-yl)-1,3-dioxoisoindolin-5-yl)piperazin-1-yl)propyl)piperidin-4-yl)-1H-pyrazol-4-yl)pyrazine-2-carboxylate]	66.35	46.78	3.3	60.97	26.97			
Nc1ncc(-c2cnn(C3CCN(CCCC4CCN(C(=O)CNc5ccc6c(c5)C(=O)N(C5CCC(=O)NC5=O)C6=O)CC4)CC3)c2)nc1C(=O)O[C@@H](C(=O)Nc1ccc(F)cc1)c1ccccc1 (stereo partly drawn) [TDH-483, (R)-2-((4-fluorophenyl)amino)-2-oxo-1-phenylethyl 3-amino-6-(1-(1-(3-(1-((2-(2,6-dioxopiperidin-3-yl)-1,3-dioxoisoindolin-5-yl)glycyl)piperidin-4-yl)propyl)piperidin-4-yl)-1H-pyrazol-4-yl)pyrazine-2-carboxylate]	86.34	84.54	2.5			62.95	37.9	
Nc1ncc(-c2cnn(C3CCN(CCC4CCN(C(=O)CCc5cccc6c5C(=O)N(C5CCC(=O)NC5=O)C6=O)CC4)CC3)c2)nc1C(=O)O[C@@H](C(=O)Nc1ccc(F)cc1)c1ccccc1 (stereo partly drawn) [TDH-376, (R)-2-((4-fluorophenyl)amino)-2-oxo-1-phenylethyl 3-amino-6-(1-(1-(2-(1-(3-(2-(2,6-dioxopiperidin-3-yl)-1,3-dioxoisoindolin-4-yl)propanoyl)piperidin-4-yl)ethyl)piperidin-4-yl)-1H-pyrazol-4-yl)pyrazine-2-carboxylate]	93.13	86.31	0.54	76.20	30.33			
COc1ccc(C(=O)N2CCC(C(=O)N3CCC(CCN4CCC(n5cc(-c6cnc(N)c(C(=O)O[C@@H](C(=O)Nc7ccc(F)cc7)c7ccccc7)n6)cn5)CC4)CC3)CC2)cc1N1CCC(=O)NC1=O [TDH-517, (R)-2-((4-fluorophenyl)amino)-2-oxo-1-phenylethyl 3-amino-6-(1-(1-(2-(1-(1-(3-(2,4-dioxotetrahydropyrimidin-1(2H)-yl)-4-methoxybenzoyl)piperidine-4-carbonyl)piperidin-4-yl)ethyl)piperidin-4-yl)-1H-pyrazol-4-yl)pyrazine-2-carboxylate]	93.97	86.64	0.62			58.11	10.78	
Nc1ncc(-c2cnn([C@@H]3CCN(CC4CCN(C(=O)COc5cccc6c5C(=O)N(C5CCC(=O)NC5=O)C6=O)CC4)C3)c2)nc1C(=O)OC(C(=O)Nc1ccc(F)cc1)c1ccccc1 (stereo partly drawn) [TDH-287, 2-((4-fluorophenyl)amino)-2-oxo-1-phenylethyl 3-amino-6-(1-((3R)-1-((1-(2-((2-(2,6-dioxopiperidin-3-yl)-1,3-dioxoisoindolin-4-yl)oxy)acetyl)piperidin-4-yl)methyl)pyrrolidin-3-yl)-1H-pyrazol-4-yl)pyrazine-2-carboxylate]	75.04	65.94	3.7	71.05	72.7			
Nc1ncc(-c2cnn(C3CCN(CCOC4CCN(C(=O)COc5cccc6c5C(=O)N(C5CCC(=O)NC5=O)C6=O)CC4)CC3)c2)nc1C(=O)O[C@@H](C(=O)Nc1ccc(F)cc1)c1ccccc1 (stereo partly drawn) [TDH-331, (R)-2-((4-fluorophenyl)amino)-2-oxo-1-phenylethyl 3-amino-6-(1-(1-(2-((1-(2-((2-(2,6-dioxopiperidin-3-yl)-1,3-dioxoisoindolin-4-yl)oxy)acetyl)piperidin-4-yl)oxy)ethyl)piperidin-4-yl)-1H-pyrazol-4-yl)pyrazine-2-carboxylate]	54.86	60.37	2.6		47.13			49.38 (1.1 µM) %
Nc1ncc(-c2cnn(C3CCN(CC4CCN(CC(=O)NC5CCN(c6ccc7c(c6)C(=O)N(C6CCC(=O)NC6=O)C7=O)CC5)CC4)CC3)c2)nc1C(=O)OC(C(=O)Nc1ccc(F)cc1)c1ccccc1 (stereo not drawn) [TDH-272, 2-((4-fluorophenyl)amino)-2-oxo-1-phenylethyl 3-amino-6-(1-(1-((1-(2-((1-(2-(2,6-dioxopiperidin-3-yl)-1,3-dioxoisoindolin-5-yl)piperidin-4-yl)amino)-2-oxoethyl)piperidin-4-yl)methyl)piperidin-4-yl)-1H-pyrazol-4-yl)pyrazine-2-carboxylate]	23.54	44.2	13	60.73	72.92			
Nc1ncc(-c2cnn([C@@H]3CCN(CCOCCOCCNC(=O)CNc4cccc5c4C(=O)N(C4CCC(=O)NC4=O)C5=O)C3)c2)nc1C(=O)OC(C(=O)Nc1ccc(F)cc1)c1ccccc1 (stereo partly drawn) [TDH-267, 2-((4-fluorophenyl)amino)-2-oxo-1-phenylethyl 3-amino-6-(1-((3R)-1-(2-(2-(2-(2-((2-(2,6-dioxopiperidin-3-yl)-1,3-dioxoisoindolin-4-yl)amino)acetamido)ethoxy)ethoxy)ethyl)pyrrolidin-3-yl)-1H-pyrazol-4-yl)pyrazine-2-carboxylate]		37.75	5.7	21.58	60.07			
Nc1ncc(-c2cnn(C3CCN(CCC4CCN(C(=O)C5CN(c6ccc7nnn(C8CCC(=O)NC8=O)c(=O)c7c6)C5)CC4)CC3)c2)nc1C(=O)OC(C(=O)Nc1ccc(F)cc1)c1ccccc1 (stereo not drawn) [TDH-291, 2-((4-fluorophenyl)amino)-2-oxo-1-phenylethyl 3-amino-6-(1-(1-(2-(1-(1-(3-(2,6-dioxopiperidin-3-yl)-4-oxo-3,4-dihydrobenzo[d][1,2,3]triazin-6-yl)azetidine-3-carbonyl)piperidin-4-yl)ethyl)piperidin-4-yl)-1H-pyrazol-4-yl)pyrazine-2-carboxylate]	70.94	48.11	6.7	87.96	64.92			
